Assay results from patent publication US5599937A, “Heteroaromatic quinuclidinenes, their use and preparation” (Pharmacia AB, priority 1992, dated 1997).

What follows are molecules tested against T1, smooth muscle strips of the urinary bladder (Cavia porcellus, UniProt H0W1Z3) (assay: Functional in vitro study: antimuscarinic activity (antagonism of carbachol contraction) on urinary bladder strips). Conditions: not given.
T1 construct: Smooth muscle strips of the urinary bladder and ileum (longitudinal muscle only) were dissected; from tissue; host or cells: guinea pig urinary bladder smooth muscle strips
Set-up: species or system guinea pig
Experimental: (§1) Male guinea pigs, weighing about 300 g, were killed by a blow on the neck and exsanguinated. Smooth muscle strips of the urinary bladder and ileum (longitudinal muscle only) were dissected in a Krebs-Henseleit solution (pH 7.4). The strip preparations were then vertically mounted between two hooks in thermostatically controlled (37° C.) organ baths (5 mL). One of the hooks was adjustable and connected to a force transducer (FT 03, Grass Instruments). The Krebs-Henseleit solution was continuously bubbled with carbogen gas (93.5% O2 /6.5% CO2) to maintain pH at 7.4. Isometric tension was recorded by a Grass Polygraph (model 79D). A resting tension of approximately 5 mN was initially applied on each muscle strip and the preparations were allowed to stabilize for at least 45 min. The resting tension was repeatedly adjusted and the preparations were washed several times during the stabilization period.
(§2) The urinary bladder strips were used for evaluation of antimuscarinic activity and the ileal preparations for studies of muscarinic activity. Carbachol (carbamylcholine chloride) was used as the standard agonist. Concentration-response curves to agonists were generated either by the cumulative dose-response technique (bladder strip) or by the addition of single agonist concentrations (ileal preparations). In the latter case, the preparations were washed and allowed to rest between each concentration of agonist. EC50 values were graphically determined.
In studies of antagonism, a control concentration-response curve to carbachol was generated by cumulative addition of carbachol to the bladder strip (i.e., stepwise increase of the agonist concentration until the maximal contractile response was reached), followed by washing out and a resting period of at least 15 min. before a fix concentration of the test compound (antagonist) was added to the organ-bath. After 60 min. of incubation, a second cumulative concentration-response curve to carbachol was generated. Responses were expressed as percent of the maximal response to carbachol. EC50 -values for carbachol in the absence (control) and presence of antagonist were graphically derived and dose ratios (r) were calculated. Dissociation constants, Kb, for the antagonists were then calculated using the following equation (1), where [A] is the concentration of test compound.

T1 sequence (H0W1Z3 1-590): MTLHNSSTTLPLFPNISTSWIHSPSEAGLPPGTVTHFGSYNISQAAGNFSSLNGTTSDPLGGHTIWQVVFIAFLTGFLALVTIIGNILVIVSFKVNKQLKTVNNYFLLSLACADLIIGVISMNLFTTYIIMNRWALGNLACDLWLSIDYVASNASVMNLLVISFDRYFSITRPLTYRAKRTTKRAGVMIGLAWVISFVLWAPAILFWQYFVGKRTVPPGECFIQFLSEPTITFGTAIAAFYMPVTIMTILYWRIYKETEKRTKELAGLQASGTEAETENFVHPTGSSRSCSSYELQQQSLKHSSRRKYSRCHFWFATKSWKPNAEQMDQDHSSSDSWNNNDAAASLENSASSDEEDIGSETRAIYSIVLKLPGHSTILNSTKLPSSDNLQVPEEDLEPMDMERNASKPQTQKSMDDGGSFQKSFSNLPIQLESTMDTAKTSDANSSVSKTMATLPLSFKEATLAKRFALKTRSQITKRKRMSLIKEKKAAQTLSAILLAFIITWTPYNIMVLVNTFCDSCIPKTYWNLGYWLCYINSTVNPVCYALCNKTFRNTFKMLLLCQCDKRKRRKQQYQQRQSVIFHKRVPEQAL

Point of comparison: `Cc1ccc(C2(O)CN3CCC2CC3)s1` (stereo not drawn) [Example 6, 3-(5-Methylthienyl)quinuclidin-3-ol], Kb 23000 nM. Against it:
- Cc1ccc(C2(O)CN3CCC2CC3)o1 (stereo not drawn) [Example 4, 3-(5-Methyl-2-furyl)quinuclidin-3-ol] — 19-fold lower, 1200 nM
- CCc1ccc(C2(O)CN3CCC2CC3)o1 (stereo not drawn) [Example 8, 3-(5-Ethyl-2-furyl)quinuclidin-3-ol] — 3.4-fold lower, 6700 nM

Same assay, conditions: read-out: Kb (dissociation constant for the antagonist)

Point of comparison: `COC(=O)c1ccc(C2=CN3CCC2CC3)o1` [Example 31, 3-(2-Methoxycarbonyl-5-furyl)-quinuclidin-2-ene], Kb 2600 nM. Against it:
- Cc1ccc(C2=CN3CCC2CC3)o1 [Example 17, 3-(5-Methyl-2-furyl)quinuclidin-2-ene] — 43-fold lower, 61 nM
- Cc1ccc(C2=CN3CCC2CC3)s1 [Example 19, 3-(5-methyl-2-thienyl)quinuclidin-2-ene] — 8.1-fold lower, 320 nM
- CCc1ccc(C2=CN3CCC2CC3)o1 [Example 21, 3-(5-Ethyl-2-furyl)quinuclidin-2-ene] — 84-fold lower, 31 nM
- C1=C(c2occc2-c2ccccc2)C2CCN1CC2 [Example 27, 3-(3-Phenylfuran-2-yl)quinuclidin-2-ene] — 960-fold lower, 2.7 nM
- C1=C(c2ccc(-c3ccccc3)o2)C2CCN1CC2 [Example 29, 3-(5-Phenylfuran-2-yl)quinuclidin-2-ene] — 2.5-fold lower, 1020 nM

Same assay, conditions: read-out: Kb (dissociation constant for the antagonist); guinea pig urinary bladder strip; antagonism of carbachol; 60 min incubation; Kb=[A]/r-1

`OC1(c2occc2Br)CN2CCC1CC2` (stereo not drawn) [Example 7, 3-(3-Bromo-2-furyl)quinuclidin-3-ol] showed a Kb of 11000 nM.

What follows are molecules tested on ileum (longitudinal muscle) (assay: Functional in vitro study: muscarinic (agonistic) activity on ileal preparations). Conditions: Cavia porcellus, guinea pig ileum, read-out: agonistic effect on ileum in relation to maximal carbachol response (Emax).
Experimental: as §1
as §2, with “In the latter case, the preparations were washed and allowed to rest between each concentration of agonist.” left out, “determined. […]” for “determined.”

Point of comparison: `Cc1ccc(C2=CN3CCC2CC3)s1` [Example 19, 3-(5-methyl-2-thienyl)quinuclidin-2-ene], Emax at 500 µM 10%. Against it:
- COC(=O)c1ccc(C2=CN3CCC2CC3)o1 [Example 31, 3-(2-Methoxycarbonyl-5-furyl)-quinuclidin-2-ene] — higher, 21%
